From a melting point compilation (Tetko et al.; mined from patent text by program, amines drawn as free bases though some values may be those of a salt)

First: O=C(CF)CCCN1C(=O)c2ccccc2C1=O
Second: CC1CCN2C(=O)c3ccccc3NC(=O)C12 (stereo not drawn)
The melting point of the first is lower: 92 °C for the first, 117 to 118 °C for the second.

First: CC1(C)CCC(C)(C)c2cc(N(Cc3ccc(F)cc3)C(=O)Nc3ccc(C(=O)O)cc3)ccc21
Second: CC(C)(Oc1ccc(CN(Cc2ccccc2)c2ccc(Cl)cc2)cc1)C(=O)O
The melting point of the first is higher: 143 to 146 °C for the first, 65 to 67 °C for the second.

First: O=C(Nc1ccc(I)cc1Cl)C(F)(F)F
Second: N#Cc1cc(F)c(NC(=O)C(F)(F)F)c(F)c1
The melting point of the first is lower: 51 to 52 °C for the first, 134 to 135 °C for the second.

`O=C(NCC(F)(F)F)C1CC(=O)N(Cc2ccccc2)C1` (stereo not drawn) and `CCOC1CC(O)C(=O)N1S(=O)(=O)c1ccccc1` (stereo not drawn) cannot be ordered by melting point: 110 to 112 °C for the first, 108 to 116 °C for the second.

First: Cc1c(NC(=O)CC(C)(C)C)cc2c(c1C)OC(C)(C)C2c1cccc(C(C)C)c1 (stereo not drawn)
Second: CC(=Cc1ccc(C(C)C)cc1)COc1cc(C)c(NC=O)c(C)c1C
The melting point of the first is higher: 162 to 163 °C for the first, 153 to 155 °C for the second.

Compared with `CC(=O)CC(=O)NC1=Nc2ccc(Cl)cc2C(c2ccccc2)=NCC1`, `CC(=O)Nc1c(C(=O)c2cccc(O)c2)[nH]c2cc(Cl)ccc12` is lower in melting point: 158 to 159 °C for the first, 130 to 145 °C for the second.

Compared with `CCOC(=O)[C@H](CCc1ccccc1)N[C@@H](C)C(=O)N1N=C(C(C)(C)C)S[C@H]1C(=O)O`, `CC(C)[C@H](NC(=O)OCc1ccccc1)C(=O)N[C@@H](Cc1ccccc1)C(=O)C[C@@H]1CCCC[C@H]1C(=O)NC(C)(C)C` is higher in melting point: 165 to 168 °C for the first, 186 to 188 °C for the second.

First: Cc1ccc(S(=O)(=O)N2C(=O)N(c3ccc(Cl)cc3)C(C)(O)C2O)cc1 (stereo not drawn)
Second: Cc1ccc(S(=O)(=O)OCC2COc3ccccc3O2)cc1 (stereo not drawn)
The melting point of the first is lower: 60 to 70 °C for the first, 79 °C for the second.

First: NS(=O)(=O)c1cc2[nH]c(CCl)nc2cc1Cl
Second: NS(=O)(=O)c1cc2[nH]c(S)nc2cc1Cl
The melting point of the first is lower: 296 to 301 °C for the first, 341 to 343 °C for the second.

Compared with `CCC(/C=C(\OC)C(=O)OC)=C\c1cc2ccccc2[nH]1`, `Cc1nc(Nc2nc3ccccc3[nH]2)nc(O)c1CC(=O)O` is higher in melting point: 93 to 95 °C for the first, over 300 °C for the second.

First: CC(=O)N1CCc2ccc(N)cc2C1
Second: O=C(C1CC1)N1CCC2(CC1)Cc1ccccc1O2
The melting point of the first is lower: 98 to 100 °C for the first, 111 to 113 °C for the second.

Compared with `Nc1c(F)c(F)c(F)c(F)c1S(=O)(=O)O`, `O=C(NC[C@@H]1CN2C(=O)C[C@H]2O1)c1cc(F)c(F)cc1F` (racemic) is lower in melting point: 272 to 276 °C for the first, 76.5 to 78.1 °C for the second.

Compared with `CC(C)(C)c1ccc(Cn2[nH]c(N)cc2=O)cc1`, `COn1c(C(C)(C)C)nc2c(N)nc3ccccc3c21` is higher in melting point: 126 °C for the first, 195 to 197 °C for the second.

Compared with `COC(=O)C(NC(=O)OC(C)(C)C)c1ccc(OS(=O)(=O)C(F)(F)F)cc1` (stereo not drawn), `COC(=O)Cc1c(C(=O)OC)ccn1CCOS(C)(=O)=O` is higher in melting point: 67 to 67.6 °C for the first, 99 to 101 °C for the second.

First: CC(C)(c1ccc(Oc2cccc(N)c2)cc1)c1cccc(C(C)(C)c2ccc(Oc3cccc(N)c3)cc2)c1
Second: O=C(O)/C=C/c1ccc(Oc2c(-c3ccccc3)c(C3CC3)cc3cc(O)ccc23)cc1
The melting point of the first is lower: 94 to 96 °C for the first, 242 to 243 °C for the second.

First: C(=C1COc2ccc3c4c(nnc1c24)C(=Cc1ccccc1)CO3)c1ccccc1
Second: ClCc1ccc(-n2c3ccccc3c3ccccc32)cc1
The melting point of the first is higher: 242 °C for the first, 88 to 89 °C for the second.

First: COc1ccc2oc(C(=O)O)c(OC)c2c1
Second: CCN(c1cccc(OC)c1)c1nc(=O)c2cccnc2s1
The melting point of the first is higher: 168 °C for the first, 136 °C for the second.

First: COCCN1CC(c2ccccc2)NC1=S (stereo not drawn)
Second: NC(=O)C1CCCc2c1c1cc(OCCCP(=O)(O)O)ccc1n2Cc1ccccc1 (stereo not drawn)
The melting point of the first is lower: 76 to 78 °C for the first, 200 to 201 °C for the second.

First: C=C1CC(COc2cccc3cccnc23)(c2ccc(Cl)cc2)OC1=O (stereo not drawn)
Second: COc1cc(-c2nc3ccccc3n2Cc2ccc(Cl)cc2)cc(OC)c1OC
The melting point of the first is lower: 107 to 108 °C for the first, 169 °C for the second.

First: CCOC(=O)c1c(O)c2sccc2[nH]c1=O
Second: CCOC(=O)c1cc2c(cn1)[nH]c1ccc(Br)cc12
The melting point of the first is lower: 218 °C for the first, 308 to 313 °C for the second.

Compared with `CC(O)C(O)Cc1cc(C(N)=O)ccc1C(N)=O` (stereo not drawn), `C=CCc1cc(C(N)=NO)ccc1O` is higher in melting point: 130 °C for the first, 144 °C for the second.

Compared with `CCOC(=O)c1cnn(-c2c(F)cc(C(F)(F)F)cc2Cl)c1N`, `Oc1noc2ccc(Oc3ccc(C(F)(F)F)cc3Cl)cc12` is higher in melting point: 147 to 149 °C for the first, 167 to 170 °C for the second.

Compared with `Cc1cc(C(=O)NCCc2ccc(CCC(=O)O)cc2)n[nH]1`, `COc1ccc(CNc2nc(CCCC(=O)O)nc3sc(Cl)cc23)cc1Cl` is lower in melting point: 202 to 205 °C for the first, 114 °C for the second.

First: COC(OC)C1CN=C(c2cc3cccc(NS(=O)(=O)c4ccccn4)c3[nH]2)S1 (stereo not drawn)
Second: Brc1c(NC2=NCCN2)ccc2c1ncn2Cc1ccccc1
The melting point of the first is lower: 153 °C for the first, 197 to 198 °C for the second.

Compared with `CC(C)n1nc(-c2c(-c3ccccc3)nc(N)nc2-n2cncn2)ccc1=O`, `CC(C)Cn1nc(-c2ccccc2)c(-c2ccccc2)c1CCl` is lower in melting point: 266 to 268 °C for the first, 92 °C for the second.

First: CCCCCCCCCCCCCCCCCCOc1cc(OCCCCC(=O)O)cc(N(CC(=O)O)CC(=O)O)c1
Second: O=C(O)C(CCCCCCCCCCCC(C(=O)O)C1CC1)C1CC1 (stereo not drawn)
The melting point of the first is higher: 126 to 128 °C for the first, 115 to 118 °C for the second.

First: N#Cc1ccc(C(=O)c2ccc(OC3OC(CO)C(O)C(O)C3O)cc2)cc1 (stereo not drawn)
Second: O=S(=O)(NCCCCOc1ccc(-c2cc[nH]n2)cc1)c1ccc(Br)cc1
The melting point of the first is lower: 122 °C for the first, 157 to 158 °C for the second.

Compared with `CC(C)c1ccc(C(=O)C(c2ccccc2)C2CCCC2)c(C(C)C)c1OS(N)(=O)=O` (stereo not drawn), `CCC1CCn2c(nc(-c3ccncn3)cc2=O)N1CC(=O)c1ccccc1` (stereo not drawn) is higher in melting point: 142 to 143 °C for the first, 187 to 189 °C for the second.

Compared with `O=C1N(Cc2cccc(C(F)(F)F)n2)c2ccccc2C12COc1cc3c(cc12)OCCO3` (stereo not drawn), `COc1cc(C(=O)N2Cc3cccn3Cc3ccccc32)ccc1-c1ccccc1C(F)(F)F` is lower in melting point: 195 to 196 °C for the first, 146 to 148 °C for the second.

Compared with `C[C@@H](O)[C@@H](OCc1ccccc1)[C@H](OCc1ccccc1)[C@@H](C)O`, `O=Cc1ccc(OCc2ccccc2)c2[nH]c(C(=O)O)cc12` is higher in melting point: 46 to 50 °C for the first, 207 °C for the second.

Compared with `CCc1ccc2c(c1NC(=O)CC1c3ccccc3Oc3ccccc31)OC(C)C2` (stereo not drawn), `CN(c1ccccc1)c1ncccc1NC(=O)c1ccccc1F` is lower in melting point: 278 to 279 °C for the first, 84 to 86 °C for the second.

First: N#CC(C#N)=C1N(CCCN2CCc3ccccc3C2)CCN1CCN1CCCCC1
Second: N#CCN1CCc2oc3ccccc3c2C1
The melting point of the first is higher: 79 to 81 °C for the first, 78 °C for the second.

First: O=c1ccc2ccc(Br)cc2[nH]1
Second: O=C(C#Cc1ccc(Br)cc1)Nc1ccccc1
The melting point of the first is higher: 295 °C for the first, 159 to 160 °C for the second.

First: CC(O)C#Cc1ncn2c1CN(C)C(=O)c1c(Cl)cccc1-2 (stereo not drawn)
Second: CC(C)Oc1cc(CCCO)n(Cc2ccc(Cl)cc2Cl)n1
The melting point of the first is higher: 251 to 252 °C for the first, 51 to 52 °C for the second.

Compared with `CC(=O)NC[C@H]1CN(c2ccc(-c3noc(C)n3)c(F)c2)C(=O)O1`, `CC(=O)Nc1ccccc1-c1ccn[nH]c1=O` is higher in melting point: 177 to 179 °C for the first, 235 to 236 °C for the second.

First: Nc1nc(-c2ccco2)c(C(=O)C2CCOCC2)s1
Second: CCOC(=O)C(NS(=O)(=O)c1ccc(C)cc1)C1CCOC1 (stereo not drawn)
The melting point of the first is higher: 184 to 188 °C for the first, 104 to 105 °C for the second.

First: CC(CC(=O)O)CC(=O)Nc1cccc(-c2ccnc3c(C(=O)c4cccs4)cnn23)c1 (stereo not drawn)
Second: O=C(Nc1ccc(-n2nc(C(F)(F)F)cc2Br)cc1)c1ccncc1Cl
The melting point of the first is higher: 135 to 136 °C for the first, 79 to 82 °C for the second.

First: COc1ccc2nccc(CCCC3CCCNC3)c2c1 (stereo not drawn)
Second: COc1cc(OC)cc(N2CCN(C(=O)Nc3cc4ccccc4cc3OC)CC2)c1
The melting point of the first is lower: 110 °C for the first, 191 to 193 °C for the second.

First: CCOc1cc(C2c3cccc(C4CC4C(N)=O)c3C(=O)N2CCS(C)(=O)=O)ccc1O (stereo not drawn)
Second: CN1CCC(c2c(O)cc(O)c3c(=O)cc(-c4ccccc4Cl)oc23)C1CN (stereo not drawn)
The melting point of the first is higher: 296 °C for the first, 218 to 219 °C for the second.

First: CC(=O)N1C(C(=O)O)CSC1C(C)c1ccc(CC(C)C)cc1 (stereo not drawn)
Second: CCCc1c(OC(C(=O)O)c2ccc(Cl)cc2)ccc(C(C)=O)c1O (stereo not drawn)
The melting point of the first is lower: 150 to 153 °C for the first, 163 to 164 °C for the second.

Compared with `O=c1[nH]c(=O)n(CCCCBr)c2nccnc12`, `CCCCCCOC(=O)COc1ccc(F)c(C(N)=O)c1F` is lower in melting point: 154 to 155 °C for the first, 108 °C for the second.

First: COc1cc2ncc(C#N)c(Nc3cc(Cl)ccc3O)c2cc1OC
Second: COC(=O)C(C)(C)OCC#Cc1cc(Cl)ccc1NS(=O)(=O)c1cc(C)cc(C)c1
The melting point of the first is higher: over 250 °C for the first, 78 to 80 °C for the second.

First: O=C1CCC(c2c[nH]c3ccc(F)cc23)CC1
Second: O=C1Nc2cccc(F)c2C(=O)N2CC[C@@H]12
The melting point of the first is lower: 112 to 114 °C for the first, 232 to 234 °C for the second.

First: CS(=O)(=O)c1nccn1CC(=O)Cl
Second: CCOC(=O)C(=CNNc1c(Cl)cc(Cl)cc1Cl)C(=O)OCC
The melting point of the first is higher: 132 to 133 °C for the first, 92 °C for the second.

Compared with `CC=CC1=NC(=Cc2cccs2)C(=O)O1`, `O=C1N(Cc2c[nH]cn2)CCN1c1cccc(Cl)c1` is higher in melting point: 174 to 176 °C for the first, 201 to 203 °C for the second.

First: CC1(C)CC(=O)C(c2c(Cl)cc([N+](=O)[O-])cc2Cl)C(=O)C1
Second: Cc1cc([N+](=O)[O-])ccc1N=C1SCC2(CCCC2)N1CC1CCCCC1
The melting point of the first is higher: 288 to 290 °C for the first, 85 to 87 °C for the second.

First: Cc1nc(NCCc2ccccc2)sc1-c1ccnc(Nc2ccc(N3CCOCC3)cc2)n1
Second: CCc1nn(C(=O)OC(C)(C)C)c2cc(-c3ccc4nnn(Cc5ccc6ncccc6c5)c4n3)ccc12
The melting point of the first is higher: 226 to 228 °C for the first, 185 to 188 °C for the second.

First: C#Cc1ccc(Br)c(C(F)(F)F)c1
Second: CC(C)P1(=O)c2ccccc2CN1C(C)(C)C (stereo not drawn)
The melting point of the first is lower: under 50 °C for the first, 67 to 70 °C for the second.

First: COc1ccc2c(=O)cc[nH]c2c1O
Second: COc1ccc2c(c1OC(C)=O)NC(OC)C1CCCN1C2=O (stereo not drawn)
The melting point of the first is higher: 228 to 230 °C for the first, 143 to 145 °C for the second.

Compared with `Cc1cc2c(cc1O)C(C)(C)CCC2(C)C`, `CC1CC2C3CCC4=CC(=O)C=CC4(C)C3C(O)CC2(C)C1C(=O)CI` (stereo not drawn) is higher in melting point: 122 to 123 °C for the first, 153 °C for the second.

First: CCOC(=O)Cc1ccc(-c2nc(COc3ccc(COc4nn(-c5ccccc5)cc4/C=C\c4csc(C(C)C)n4)cc3OC)c(C)o2)cc1
Second: CCCCS(=O)(=O)N(CCN(CC)CC)c1ccc(C(Cl)=C(c2ccccc2)c2ccccc2)cc1
The melting point of the first is higher: 89 to 90 °C for the first, 65 to 70 °C for the second.

`O=C(SC1CCCC1C(=O)N1CCC[C@H]1C(=O)O)c1ccccc1` (stereo partly drawn) showed a melting point of 68 to 70 °C.
